The source of these data is patent US6737058B2, “Methods for inhibiting endothelial cell and fibrinogen mediated inflammation using fibrinogen specific antibodies” (The Scripps Research Institute, priority 1992, dated 2004).

The subject of assay [1] is HUVEC. Description: Fibrinogen-mediated adhesion of 51Cr-labelled THP-1 cells to HUVEC. The class given is cell-based, human. As for the experimental part: For these assays, HUVEC were plated in the medium described in Example 2A at a density of approximately 1-5×10^4 cells/well into flat-bottom microtiter wells of a 96 well tissue-culture treated plate. The cells were then washed in serum-free RPMI 1640 and further maintained with ^51-Chromium-labelled (^51Cr) THP-1 cell suspensions previously exposed to different concentrations of unlabelled fibrinogen or left untreated. To label THP-1 cells, serum-free suspensions of the cells at a concentration of 1×10^7 cells/ml were labelled with 0.5 mCi ^51Cr (Na2CrO4 having a specific activity of 487.4 mCi/mg, NEN Du Pont de Nemours) for 2 hours at 37° C. with incorporation of an average of 12 to 20 cpm/THP-1 cell. The labelled cells were then washed twice at room temperature with serum-free RPMI 1640 and resuspended in the same medium at a concentration of 5 ×10^5 cells/ml. The labelled cells were used in the assays within 2 hours from the labelling procedure. For the assays, the cells were pre-stimulated with 1 μM N-FMLP in the presence of 1 mM CaCl2 and […] PPack. The resultant N-FMLP-stimulated THP-1 cell suspensions were then separately admixed with the following: 1) Medium without any admixed fibrinogen as a control; 2) Fibrinogen at 1.2 mg/ml and at 2.5 mg/ml concentrations; and 3) Normal human plasma (NHP) diluted 1:2 and 1:50. Purified fibrinogen was prepared as described in Example 1. Fibrinogen was present in undiluted normal human plasma at the concentration of approximately 1-3 mg/ml. The resultant admixtures were maintained for 20 minutes at 22° C. to allow for the binding of fibrinogen, either purified or present in NHP, to the Mac-1 receptor on the surface of the THP-1 cells.
The resultant fibrinogen-bound THP-1 cells were then admixed to the washed immobilized HUVEC described above to allow for the binding of a non-Mac-1 receptor binding site on fibrinogen to the RGD-independent fibrinogen receptor on the surface of HUVEC, thereby resulting in the binding of THP-1 cells to HUVEC via a fibrinogen bridge. The admixtures were maintained at 37° C. to allow for adhesion. At selected time intervals between 1 to 60 minutes, the HUVEC monolayers were gently washed five times with serum-free RPMI 1640 to remove nonadherent or loosely adherent THP-1 cells to which fibrinogen was initially immobilized. The adherent cells were then solubilized in 10% SDS and the cell lysate was quantitated in a beta scintillation counter. Spontaneous ^51Cr release from THP-1 cells was always less than 2% during the adhesion assay. The number of specifically attached THP-1 cells was determined by dividing the cpm harvested by the cpm/cell.
To determine the effects that temperature has on the ability of fibrinogen to mediate the binding of ^51Cr-labelled THP-1 cells to monolayers of HUVEC, cell adhesion assays as described in Example 3B1) were performed at 22° C. and at 37° C. over the course of one hour. The assays were performed in an identical manner as described above with the exception that 500 μg/ml of fibrinogen was used instead of […]. The maximum binding of THP-1 cells to HUVEC at 22° C. was 7500 cells after 40 minutes. At 60 minutes, the binding decreased to 5000 cells. The data is significant in comparison to the approximately 2000 THP-1 cells attached in the absence of fibrinogen. However, at 37° C., approximately 20,000 THP-1 cells attached to HUVEC after 40 minutes against a background binding of approximately 5000 cells in the absence of fibrinogen. The binding of ^51Cr-labelled THP-1 cells to HUVEC, thus, is maximized at the physiologic temperature of 37° C. with physiologic concentrations of fibrinogen.

Assay [2] deals with HUVEC. Description: 125I-labelled fibrinogen binding to HUVEC monolayers, dose dependency. Details: species or system human. Conditions: monolayers of unstimulated HUVEC, 22° C., 45 minutes, 2.5 mM CaCl2. As for the experimental part:
Fibrinogen was iodinated using the Iodogen™ method. Briefly, Iodogen™ was dissolved in dichloromethane for a final concentration of 1 μg/ml and 170 μl of dissolved Iodogen™ that was dried in the bottom of a glass tube. Fibrinogen, prepared in Example 1A, was resuspended in 0.055 M sodium citrate buffer, pH 7.4, for a final concentration of 5 μg/ml. Two hundred μl of dissolved fibrinogen solution was placed into the Iodogen™-coated tube with 700 μCi of carrier-free sodium iodide. The admixture was maintained on ice for 20 minutes with occasional agitation. To stop the iodination reaction, the admixture was removed from the tube and gel filtered on a […]™ G-25 coarse column (100×2.5). Fractions of iodinated fibrinogen were determined by trichloroacetic acid precipitable counts. The labelled fibrinogen produced was radiolabelled to a specific activity of 0.3 μCi/μg of protein. Labelled fibrinogen was used in the binding and inhibition of binding assays described herein at a concentration of 50 μg/ml whereas unlabelled fibrinogen was generally used at a concentration of 500 μg/ml. […]
The resultant admixtures were maintained at 22° C. for 45 minutes to allow for fibrinogen to bind to the plated HUVEC. […] The cells were then solubilized in 10% SDS and the radioactivity associated under the maintenance conditions was quantitated in a gamma counter.

On to “fibrinogen: fibrinogen isolated from fresh plasma by cold ethanol fractionation, fibronectin-free”, for which the “THP-1 cells bound to HUVEC, maximum” value in assay [1] (500 μg/ml fibrinogen, 22° C., 40 minutes) is 7500 cells. Further, the “THP-1 cells bound to HUVEC” value in assay [1] (500 μg/ml fibrinogen, 22° C., 60 minutes) is 5000 cells. The “THP-1 cells attached to HUVEC” value is listed as “approximately 20,000 cells” in assay [1] (500 μg/ml fibrinogen, 37° C., 40 minutes) and “approximately 18,000 cells” in assay [1] (2.5 mg/ml fibrinogen, 60 minutes, not saturated). The “THP-1 cells attached to HUVEC (parallel control), maximal” value in assay [1] (500 μg/ml fibrinogen, 60 minutes, non-saturable) is reported as “approximately 25,000 cells”. In addition, the “THP-1 cells attached to HUVEC, maximum” value in assay [1] (1.2 mg/ml fibrinogen, 37° C., 60 minute time course) is listed as 10,000 cells. Also, in assay [2], the “concentration at which 125I-labelled fibrinogen binds saturably” value is recorded as “approximately 0.36 μM”.
